Assay results as given in patent US20250353873A1, “COMPOUNDS AND METHODS FOR MODULATING APOE EXPRESSION” (Ionis Pharmaceuticals, Inc., priority 2024, published 2025).
pIC50: −log10 of the molar value. Strand notation (5' to 3'): a small letter for the sugar, then the base; units joined by * are phosphorothioate-linked, units joined directly phosphodiester-linked; [ ] holds rarer units or linkages, { } end groups; capitals alone tell only the bases. [ms] = mesyl phosphoramidate linkage; e = 2'-O-(2-methoxyethyl) (MOE); [5mC] = 5-methylcytosine; d = 2'-deoxy (DNA)

Columns and labels:
human APOE RNA [1] = assay: Activity in APOE 1549 knock-in mice, single ICV bolus, 4 weeks (Example 8); format: in vivo; settings: n = 2, single ICV bolus of 300 μg, four weeks post treatment, Table 18
Procedure: Modified oligonucleotides described above were tested in the 1549 APOE knock-in mouse model described above.
APOE knock-in mice were divided into groups of either 2 or 6 mice each as described in the tables below. Each mouse received a single intracerebroventricular (ICV) bolus of 300 μg of modified oligonucleotide. A group of either 3 or 6 mice received a single ICV bolus with PBS as a negative control.
Four weeks post treatment, mice were sacrificed and RNA was extracted from cortical brain tissue and spinal cord for quantitative real-time RT-PCR analysis of RNA expression of APOE using primer probe set RTS3073 (described herein above). APOE RNA levels were normalized to mouse Ppia. Mouse Ppia was amplified using primer probe set m_cyclo24 (described herein above). Results are presented as percent human APOE RNA relative to the amount of human APOE RNA in PBS treated animals, (% control). Each experiment is identified in separate tables below.

human APOE RNA [2] = assay: Activity in APOE C57BL/6NTac-Apoeem7250 knock-in mice, single ICV bolus, 20 weeks (Example 13); format: in vivo; settings: single ICV bolus 300 μg, 20 weeks post treatment, normalized to mouse Ppia
Outline: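 Cortical and spinal cord RNA was assayed by real-time RT-PCR for human APOE, normalized to mouse Ppia and reported as percent of PBS controls. Tissue was taken twenty weeks after one 300 μg intracerebroventricular bolus in APOE knock-in mice, 4 per group.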

human APOE RNA [3] = assay: Dose-dependent inhibition of human APOE RNA in HepG2 cells, electroporation, 24 hours (Example 6); format: cell-based
Outline: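 IC50 derived from APOE RNA levels, given as percent of untreated control after GAPDH normalization (probe sets RTS3073 and RTS104). Oligonucleotides were delivered at multiple concentrations by electroporation into HepG2 cells seeded at 50,000 per well.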

human APOE RNA [4] = assay: Duration of action study in APOE C57BL/6NTac-Apoeem7250 knock-in mice (Example 16); format: in vivo; settings: 300 μg ICV
Outline: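 Knock-in mice (2-4 per group) received a single ICV bolus of 300 μg oligonucleotide or PBS. At various timepoints, cortex and spinal cord human APOE RNA was measured by RT-qPCR (RTS3073), normalized to mouse Ppia and expressed as % of PBS control.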

human APOE RNA [5] = assay: Activity in APOE C57BL/6NTac-Apoeem7250 knock-in mice, single ICV bolus, 8 weeks (Example 11); format: in vivo; settings: single ICV bolus 300 μg, 8 weeks post treatment, normalized to mouse Ppia
Outline: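 Cortical and spinal cord human APOE RNA quantified by RT-qPCR 8 weeks after a single 300 μg ICV dose in knock-in mice, Ppia-normalized. Values are percent of levels in PBS-treated animals.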

human APOE RNA [6] = assay: Activity in APOE C57BL/6NTac-Apoeem7250 knock-in mice, single ICV bolus, 16 weeks (Example 12); format: in vivo; settings: single ICV bolus 300 μg, 16 weeks post treatment, normalized to mouse Ppia
Outline: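 A single 300 μg intracerebroventricular dose was given, with PBS-treated mice as reference; cortical and spinal cord tissue was taken 16 weeks later. RT-qPCR quantified human APOE RNA, Ppia-normalized, expressed relative to PBS animals (% control).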

human APOE RNA [7] = assay: Activity in APOE 1549 knock-in mice, single ICV bolus, 2 weeks (Example 7); format: in vivo; settings: single ICV bolus of 300 μg, two weeks post treatment, Table 17
Procedure: Modified oligonucleotides described above were tested in APOE knock-in mice.
APOE knock-in mice (model 41549) were obtained from Taconic Biosciences. APOE knock-in mice were divided into groups of 2 mice each. Each mouse received a single intracerebroventricular (ICV) bolus of 300 μg of modified oligonucleotide. A group of 4 mice received a single ICV bolus with PBS as a negative control.
Two weeks post treatment, mice were sacrificed and RNA was extracted from cortical brain tissue and spinal cord for quantitative real-time RT-PCR analysis of RNA expression of APOE using primer probe set RTS3073 (described herein above). APOE RNA levels were normalized to mouse Ppia. Mouse Ppia was amplified using primer probe set m_cyclo24 (forward sequence TCGCCGCTTGCTGCA, designated herein as SEQ ID NO: 16; reverse sequence ATCGGCCGTGATGTCGA, designated herein as SEQ ID NO: 17; probe sequence […], designated herein as SEQ ID NO: 18). Results are presented as percent human APOE RNA relative to the amount of human APOE RNA in PBS treated animals, (% control). Each experiment is identified in separate tables below.

Substance	APOE RNA (% control) Cortex (human APOE RNA [1]) [% control]	APOE RNA (% control) Spinal Cord (human APOE RNA [1]) [% control]	APOE RNA (% control) Cortex (human APOE RNA [2]) [% control]	APOE RNA (% control) Spinal Cord (human APOE RNA [2]) [% control]	pIC50 (human APOE RNA [3])	APOE RNA (% UTC) (human APOE RNA [3]; 5 nM)	APOE RNA (% UTC) (human APOE RNA [3]; 13 nM)	APOE RNA (% UTC) (human APOE RNA [3]; 33 nM)	APOE RNA (% UTC) (human APOE RNA [3]; 82 nM)	APOE RNA (% UTC) (human APOE RNA [3]; 205 nM)	APOE RNA (% UTC) (human APOE RNA [3]; 512 nM)	APOE RNA (% UTC) (human APOE RNA [3]; 1,280 nM)	APOE RNA (% UTC) (human APOE RNA [3]; 3,200 nM)	APOE RNA (% UTC) (human APOE RNA [3]; 8,000 nM)	APOE RNA (% UTC) (human APOE RNA [3]; 20,000 nM)	further results
1736520: 6-10-4 MOE gapmer CTTGGTGAATCTTTATTAAA, linkages sossoszzzssssssssss (e[5mC]*eTeT*eG*eGeT*dG[ms]dA[ms]dA[ms]dT*d[5mC]*dT*dT*dT*dA*dT*eT*eA*eA*eA) [compound 1736520]	41	32	65	62	6.24	109	87	92	72	62	34	28	11	11	83	–
1736523: 6-10-4 MOE gapmer CTTGGTGAATCTTTATTAAA, linkages ssoooszzssssssssoss (e[5mC]*eT*eTeGeGeT*dG[ms]dA[ms]dA*dT*d[5mC]*dT*dT*dT*dA*dT*eTeA*eA*eA) [compound 1736523]	42	34	73	44	6.17	97	114	108	79	78	47	29	39	5	4	–
1736522: 6-10-4 MOE gapmer CTTGGTGAATCTTTATTAAA, linkages sooosszzssssssssoss (e[5mC]*eTeTeGeG*eT*dG[ms]dA[ms]dA*dT*d[5mC]*dT*dT*dT*dA*dT*eTeA*eA*eA) [compound 1736522]	41	39	64	56	5.86	110	88	90	82	67	59	45	41	18	43	–
1736525: 6-10-4 MOE gapmer CTTGGTGAATCTTTATTAAA, linkages sooosszzsssssssssss (e[5mC]*eTeTeGeG*eT*dG[ms]dA[ms]dA*dT*d[5mC]*dT*dT*dT*dA*dT*eT*eA*eA*eA) [compound 1736525]	35	41	71	118	5.89	101	100	106	113	70	69	37	42	22	7	–
1736527: 6-10-4 MOE gapmer CTTGGTGAATCTTTATTAAA, linkages sssooozzsssssssssss (e[5mC]*eT*eT*eGeGeTdG[ms]dA[ms]dA*dT*d[5mC]*dT*dT*dT*dA*dT*eT*eA*eA*eA) [compound 1736527]	37	54	64	58	5.80	104	108	96	97	92	63	37	37	34	23	–
1736524: 6-10-4 MOE gapmer CTTGGTGAATCTTTATTAAA, linkages sssooozzssssssssoss (e[5mC]*eT*eT*eGeGeTdG[ms]dA[ms]dA*dT*d[5mC]*dT*dT*dT*dA*dT*eTeA*eA*eA) [compound 1736524]	36	31	67	62	5.96	97	101	89	91	66	66	39	34	28	17	–
1736521: 6-10-4 MOE gapmer CTTGGTGAATCTTTATTAAA, linkages sosssszzzsssssssoss (e[5mC]*eTeT*eG*eG*eT*dG[ms]dA[ms]dA[ms]dT*d[5mC]*dT*dT*dT*dA*dT*eTeA*eA*eA) [compound 1736521]	52	50	–	–	6.40	99	109	84	69	65	40	34	18	10	3	–
1652902: 6-10-4 MOE gapmer CTTGGTGAATCTTTATTAAA, linkages sooooossssssssssoss (antisense e[5mC]*eTeTeGeGeTdG*dA*dA*dT*d[5mC]*dT*dT*dT*dA*dT*eTeA*eA*eA) [compound 1652902]	–	–	–	–	7.15	88	94	54	44	26	19	10	4	3	2	APOE RNA (% control) Cortex (human APOE RNA [4]; 14 days post-dose): 43 % control; APOE RNA (% control) Cortex (human APOE RNA [4]; 112 days post-dose): 75 % control; APOE RNA (% control) Spinal Cord (human APOE RNA [4]; 14 days post-dose): 27 % control; APOE RNA (% control) Spinal Cord (human APOE RNA [4]; 112 days post-dose): 32 % control; APOE RNA (% control) Cortex (human APOE RNA [5]; cortex): 44 % control; APOE RNA (% control) Spinal Cord (human APOE RNA [5]; spinal cord): 12 % control; APOE RNA (% control) Cortex (human APOE RNA [6]; cortex): 105 % control; APOE RNA (% control) Spinal Cord (human APOE RNA [6]; spinal cord): 60 % control; APOE RNA (% control) Cortex (human APOE RNA [7]; cortex): 31 % control; APOE RNA (% control) Spinal Cord (human APOE RNA [7]; spinal cord): 171 % control
